Counter-ions that a name gives are not always drawn.
How the values were obtained:
[1] = target: human serotonin 5-HT2C(e) receptors; assay: serotonin 5-HT2C(e) receptor binding assay ([3H]-mesulergine); settings: reference compound
Experimental: (§1) The serotonin 5-HT2C(e) receptor binding assay was performed according to the data sheet provided by the supplier of the receptor preparation, with modifications. The receptor preparation was incubated for 120 min at 37 °C in 50 mM Tris-HCl (pH 7.4), 0.1% ascorbic acid and 10 μM pargyline with 0.5 nM [N^6-methyl-^3H]-mesulergine in the dark.
All assays were terminated by transfer of the samples onto filter plates (PerkinElmer or Whatman), presoaked in assaybuffer (GABAA, GABAB, alpha2A and muscarinic M3), treated with 0.5% BSA (μ-opioid), presoaked with 0.5% polyethyleneimine (5-HT2B, 5-HT2C(e)), or presoaked with 0.1% polyethyleneimine (5-HT1A, 5-HTT). Filters were washed four times with 200 μl of ice-cold 50 mM Tris-HCl pH 7.4 (GABAA, GABAB, Alpha2A, 5-HT1A, 5-HT2B 5-HT2C(e), μ-opioid, and muscarinic M3) or 50 mM Tris-HCl pH 7.4/0.5 M NaCl (5-HTT), and filter-bound radioactivity was determined by a microplate reader (Microbeta, Wallac, Finnland). […]
The IC50 value (concentration causing half-maximal inhibition of specific binding) was determined by non-linear regression analysis of the competition curves using the “sigmoidal dose-response” algorithm (GraphPad Prism, San Diego, USA). […]

[2] = target: serotonin 5-HT2C receptor; assay: [3H]-mesulergine binding in native female hypothalami preparation; design: species or system human; settings: reference compound
Experimental: Human frozen hypothalami were from a healthy person and a healthy person (Tissue Solutions Ltd., Glasgow, UK). The tissue was minced in 20 ml 10 mM HEPES pH 7.4, 1 mM EDTA on ice with a disperger (20 s at 28 Trpm) and centrifuged for 15 min at 31,600×g at 4 °C. The pellet was homogenized (10 strokes with a glass-teflon homogenizer, 2000 rounds per minute) at 4 °C and again centrifuged. The latter procedure was repeated once and the pellet finally resupended in 50 mM HEPES pH 7.4, 4 mM MgCl2, and 1 mM EDTA; frozen in liquid nitrogen; and stored at − 80 °C until usage.
as §1
In membranes from human native female hypothalami, no specific binding of the radioligand for the 5-HT1A, [^3H]-8-OH-DPAT, could be observed, indicating the absence of the serotonin 5-HT1A receptor at least in the investigated preparation.

[3] = target: benzodiazepine site of the GABAA receptor; assay: GABAA-benzodiazepine site binding assay ([3H]-Ro-15-1788); settings: reference compound
Experimental: The GABAA-benzodiazepine site binding assay was performed as described by Mehta and Shank [28], with minor modifications. Membranes were incubated for 30 min at 22 °C in 50 mM Tris-HCl (pH 7.4) and 100 mM NaCl with 1 nM [^3H]-Ro-15-1788. Non-specific binding was determined with 10 μM diazepam.
From every data point non-specific binding was subtracted and data normalized (100% specific binding represents the specific binding of the radioligand to the binding site of the receptor in the absence of any effector).

[4] = target: human serotonin transporters; design: method as in ref 33 (Tatsumi et al.); settings: [3H]-imipramine binding; ref 33 (Tatsumi et al.); cited from earlier work
AChE = system: AChE; design: method as in ref 31 (Kishibayashi et al.); settings: ref 31 (Kishibayashi et al.); cited from earlier work

Work on `O=C1Nc2cc(Cl)c(Cl)cc2N2CCNCC12` (centres unmarked) [WAY 161503, WAY 161503 hydrochloride] yielded an IC50 [1] of 0.163 µM and an IC50 [2] of 0.347 µM.

`CN1C(=O)CN=C(c2ccccc2)c2cc(Cl)ccc21` [diazepam] showed an IC50 [3] of 0.039 µM.

For `CN(C)CCCN1c2ccccc2CCc2ccccc21` [imipramine, Imipramine hydrochloride], the Kd [4] is given as 0.0014 µM.

In the case of `CN(C)C(=O)Oc1cccc([N+](C)(C)C)c1` [neostigmine], the IC50 (AChE) is listed as 0.036 µM.

— paper PMC6567565, “Modulation of neurological pathways by Salvia officinalis and its dependence on manufacturing process and plant parts used” (BMC Complementary and Alternative Medicine, 2019)
